In patent US20090270391A1, “THIENOPYRIDINE DERIVATIVE, OR QUINOLINE DERIVATIVE, OR QUINAZOLINE DERIVATIVE, HAVING c-MET AUTOPHOSPHORYLATION INHIBITING POTENCY” (Kirin Pharma Kabushiki Kaisha, priority 2005, published 2009):

Columns and labels:
[1] = tested on: mouse lower limb bone growth plate; experiment: Influence on mouse lower limb bone growth plate; type: in vivo; settings: nude mice, 50 mg/kg oral once a day for 4 weeks
Experimental: Nude mice (BALB-nu/nu, female, four weeks old, Charles River Japan, Inc.) were preliminarily raised for one week, and the mice were grouped so that each group consisted of 8 mice. Compound A (50 mg/kg) suspended in 0.5% methylcellulose was orally administered once a day for 4 weeks to the compound A group. On the other hand, 0.5% methylcellulose was administered to the control group in the same manner as in the compound A group.
On the 29th day after the initiation of the administration, the animals were killed from ether anesthesia. A lower limb bone around the knee region was removed, was fixed in buffer formalin, was deashed and was then subjected to paraffin embedding. A thin sliced sample was dyed with HE, and the knee bone was photographed, and whether or not thickening of the bone growth plate occurs was quantitatively determined with an image analysis software (WinROOF Ver5, MITANI CORPORATION).

c-Met [2] = biological target: T1, c-Met (Homo sapiens, UniProt P08581); experiment: c-Met enzyme inhibitory activity (32P-ATP, SDS-PAGE); type: biochemical; design: purchased upstate 14-526
Experimental: (§1) c-Met protein (upstate, Lot: 25735AU, catalog code 14-526) was diluted with EDB (20 mM MOPS (pH 7.0), 1 mM EDTA, 0.01% Brij 35, 5% glycerol, 0.1% β-mercaptoethanol, and 1 mg/ml BSA) to 10 ng/μl. The KDR protein (812-1346AA) was prepared from SF21 insect cells (affinity purification, 12.4 μg/μl) according to the protocol of Invitrogen (Bac to Bac (tradename) baculovirus expression system) and was diluted with EDB to 248 ng/μl. A five-fold concentration of a reaction buffer (40 mM MOPS (pH 7.4), 1 mM EDTA) (5 μl), a ten-fold concentration of compound A (5 μl), 250 mM MnCl2 (2.5 μl), sterilized distilled water (2.5 μl), c-Met protein or KDR protein (5 μl) was mixed thereinto under ice cooling. An ATP reaction solution (25 mM ATP, 10 μci/μl γ-^32P-ATP (1 μl), 25 mM Mg (OAc)2, and 1.25 mM Hepes (pH7.4)) (10 μl) was added, and the mixture was allowed to react at 37° C. for 10 min. A tris-SDS β-ME sample treatment liquid (301780, Daiichi Kagaku Inc.) (10 μl) was added to stop the reaction. The reaction solution was boiled at 95° C. for 5 min and was then subjected to SDS-PAGE. The gel after the migration was packed, and an imaging plate (Fuji Film) was applied to the gel for transfer, followed by analysis with Typhoon (Amersham Biosciences). The IC50 value was calculated with a software for analysis Graph Pad Prism Ver.4 (Graph Pad Software, Inc.).
Target sequence in this assay (P08581 974-1390 limits assumed): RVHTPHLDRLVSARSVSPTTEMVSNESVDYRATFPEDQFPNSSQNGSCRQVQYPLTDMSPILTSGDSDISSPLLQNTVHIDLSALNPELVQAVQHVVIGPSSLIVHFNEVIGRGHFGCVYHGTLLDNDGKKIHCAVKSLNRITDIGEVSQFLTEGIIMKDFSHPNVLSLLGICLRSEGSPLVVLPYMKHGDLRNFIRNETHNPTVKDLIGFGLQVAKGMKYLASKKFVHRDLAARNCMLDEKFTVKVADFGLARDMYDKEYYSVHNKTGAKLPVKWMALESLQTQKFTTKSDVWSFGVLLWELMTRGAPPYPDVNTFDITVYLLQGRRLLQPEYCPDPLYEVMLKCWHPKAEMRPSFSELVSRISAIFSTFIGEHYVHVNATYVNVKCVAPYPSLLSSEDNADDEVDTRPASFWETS

c-Met [3] = biological target: T1, c-Met; experiment: c-Met autophosphorylation inhibition in culture cells MKN45 (immunoprecipitation/blot); type: cell-based; design: endogenous in cells; host or cells: MKN45
Source text: (§2) MKN45 (human poorly differentiated gastric cancer cell line, Riken) and A431 (human epithelioid cancer cell line, JCRB) were used for the measurement of c-Met autophosphorylation inhibition, and HUVEC (human vascular endothelial cells, KURABO INDUSTRIES LTD.) was used for the measurement of KDR autophosphorylation inhibitory activity.
(§3) MKN45 (2.5×10^5/well) or A431 (8.5×10^5/well) was inoculated into wells, containing RPMI (GIBCO) containing 0.1% fetal calf serum (JRH Biosciences), in a 6-well plate (Collagen Type I coated Plate, 4810-010, IWAKI), and, 24 hr after the inoculation, the medium was replaced with an RPMI medium containing 0.10% fetal calf serum. Thereafter, compound A was added, followed by incubation for 90 min under conditions of 37° C. and 5% CO2. The culture was removed without stimulation for MKN45 and after stimulation for 10 min with 50 ng/ml HGF (294-HG, R&D SYSTEMS) for A431. A solubilizing buffer solution (20 mM HEPES (pH 7.4), 150 mM NaCl, 0.2% TritonX-100, […], 5 mM sodium orthovanadylate, 5 mM disodium ethylenediaminetetraacetate, and 2 mM Na4P2O7) (500 μl/well) was added to satisfactorily solubilize the cells. […] The film was quantified by Scion Image, and the IC50 value was determined with an analysis software Graph Pad Prism Ver.4 (Graph Pad Software, Inc.).
Target sequence in this assay (P08581 25-1390): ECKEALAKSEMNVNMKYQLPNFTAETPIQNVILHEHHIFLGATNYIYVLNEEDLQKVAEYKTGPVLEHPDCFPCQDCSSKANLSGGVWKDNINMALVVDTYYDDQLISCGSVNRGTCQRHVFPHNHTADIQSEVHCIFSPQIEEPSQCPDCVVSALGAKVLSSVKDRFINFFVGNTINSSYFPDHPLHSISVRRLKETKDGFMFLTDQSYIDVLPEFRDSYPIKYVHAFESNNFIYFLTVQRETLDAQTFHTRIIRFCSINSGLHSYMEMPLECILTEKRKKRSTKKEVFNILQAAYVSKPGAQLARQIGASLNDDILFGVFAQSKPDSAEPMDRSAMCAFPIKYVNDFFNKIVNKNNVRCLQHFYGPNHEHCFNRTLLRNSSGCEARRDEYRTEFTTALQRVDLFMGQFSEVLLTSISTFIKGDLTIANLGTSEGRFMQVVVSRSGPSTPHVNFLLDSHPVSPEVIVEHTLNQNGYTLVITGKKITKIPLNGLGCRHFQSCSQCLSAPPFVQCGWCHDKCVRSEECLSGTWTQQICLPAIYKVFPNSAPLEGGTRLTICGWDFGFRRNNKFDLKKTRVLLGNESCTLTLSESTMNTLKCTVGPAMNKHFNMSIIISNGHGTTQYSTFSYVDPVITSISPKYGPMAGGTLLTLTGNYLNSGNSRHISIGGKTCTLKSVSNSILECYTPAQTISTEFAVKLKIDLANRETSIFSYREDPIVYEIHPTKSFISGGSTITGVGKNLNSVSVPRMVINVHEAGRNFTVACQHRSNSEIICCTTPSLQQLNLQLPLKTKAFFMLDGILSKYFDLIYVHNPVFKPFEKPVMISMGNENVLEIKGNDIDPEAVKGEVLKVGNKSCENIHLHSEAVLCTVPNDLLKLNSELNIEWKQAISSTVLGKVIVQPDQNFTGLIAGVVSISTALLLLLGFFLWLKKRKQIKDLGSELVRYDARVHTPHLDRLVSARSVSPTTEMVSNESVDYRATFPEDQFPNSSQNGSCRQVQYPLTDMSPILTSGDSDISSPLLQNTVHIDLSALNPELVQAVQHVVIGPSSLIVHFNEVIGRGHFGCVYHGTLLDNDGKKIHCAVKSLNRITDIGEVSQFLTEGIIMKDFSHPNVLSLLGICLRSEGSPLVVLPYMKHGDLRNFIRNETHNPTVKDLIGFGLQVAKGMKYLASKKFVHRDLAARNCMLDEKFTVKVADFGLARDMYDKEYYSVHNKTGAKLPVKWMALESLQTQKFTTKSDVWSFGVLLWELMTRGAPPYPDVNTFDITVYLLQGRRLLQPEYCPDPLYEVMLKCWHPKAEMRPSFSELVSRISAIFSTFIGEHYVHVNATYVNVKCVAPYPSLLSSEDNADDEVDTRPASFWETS

c-Met [4] = biological target: T1, c-Met; experiment: c-Met autophosphorylation inhibitory activity (general statement)
Target sequence in this assay (P08581 25-1390): as above

[5] = Human liver microsome test; type: in vitro ADME; settings: data not shown
KDR [6] = biological target: T2, KDR (Homo sapiens, UniProt P35968); experiment: KDR enzyme inhibitory activity (32P-ATP, SDS-PAGE); type: biochemical; design: The KDR protein (812-1346AA) was prepared from SF21 insect cells; made in house; host or cells: SF21 insect cells (Bac to Bac baculovirus system)
Experimental: as §1
Target sequence in this assay (P35968 812-1346): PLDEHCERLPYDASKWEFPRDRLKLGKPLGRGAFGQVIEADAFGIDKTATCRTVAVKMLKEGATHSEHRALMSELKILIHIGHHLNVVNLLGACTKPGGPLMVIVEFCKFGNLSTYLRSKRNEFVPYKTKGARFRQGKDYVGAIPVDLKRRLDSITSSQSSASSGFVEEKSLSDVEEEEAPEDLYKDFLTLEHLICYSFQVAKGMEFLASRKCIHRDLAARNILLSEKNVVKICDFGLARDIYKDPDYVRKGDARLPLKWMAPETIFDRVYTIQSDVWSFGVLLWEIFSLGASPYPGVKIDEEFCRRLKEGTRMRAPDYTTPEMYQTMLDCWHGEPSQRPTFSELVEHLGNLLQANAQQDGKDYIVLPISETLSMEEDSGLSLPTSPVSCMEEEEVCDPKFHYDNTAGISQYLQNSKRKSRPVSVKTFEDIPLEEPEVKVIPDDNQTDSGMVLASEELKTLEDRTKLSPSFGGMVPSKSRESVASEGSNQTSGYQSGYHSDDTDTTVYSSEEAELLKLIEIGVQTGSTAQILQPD

c-Met [7] = biological target: T1, c-Met; experiment: c-Met autophosphorylation inhibition in culture cells A431, HGF stimulated (immunoprecipitation/blot); type: cell-based; design: endogenous in cells; settings: 50 ng/ml HGF
Source text: as §2, §3
Target sequence in this assay (P08581 25-1390): as the sequence (P08581 25-1390) above

KDR [8] = biological target: T2, KDR; experiment: KDR autophosphorylation inhibitory activity (general statement)
Target sequence in this assay (P35968 20-1356): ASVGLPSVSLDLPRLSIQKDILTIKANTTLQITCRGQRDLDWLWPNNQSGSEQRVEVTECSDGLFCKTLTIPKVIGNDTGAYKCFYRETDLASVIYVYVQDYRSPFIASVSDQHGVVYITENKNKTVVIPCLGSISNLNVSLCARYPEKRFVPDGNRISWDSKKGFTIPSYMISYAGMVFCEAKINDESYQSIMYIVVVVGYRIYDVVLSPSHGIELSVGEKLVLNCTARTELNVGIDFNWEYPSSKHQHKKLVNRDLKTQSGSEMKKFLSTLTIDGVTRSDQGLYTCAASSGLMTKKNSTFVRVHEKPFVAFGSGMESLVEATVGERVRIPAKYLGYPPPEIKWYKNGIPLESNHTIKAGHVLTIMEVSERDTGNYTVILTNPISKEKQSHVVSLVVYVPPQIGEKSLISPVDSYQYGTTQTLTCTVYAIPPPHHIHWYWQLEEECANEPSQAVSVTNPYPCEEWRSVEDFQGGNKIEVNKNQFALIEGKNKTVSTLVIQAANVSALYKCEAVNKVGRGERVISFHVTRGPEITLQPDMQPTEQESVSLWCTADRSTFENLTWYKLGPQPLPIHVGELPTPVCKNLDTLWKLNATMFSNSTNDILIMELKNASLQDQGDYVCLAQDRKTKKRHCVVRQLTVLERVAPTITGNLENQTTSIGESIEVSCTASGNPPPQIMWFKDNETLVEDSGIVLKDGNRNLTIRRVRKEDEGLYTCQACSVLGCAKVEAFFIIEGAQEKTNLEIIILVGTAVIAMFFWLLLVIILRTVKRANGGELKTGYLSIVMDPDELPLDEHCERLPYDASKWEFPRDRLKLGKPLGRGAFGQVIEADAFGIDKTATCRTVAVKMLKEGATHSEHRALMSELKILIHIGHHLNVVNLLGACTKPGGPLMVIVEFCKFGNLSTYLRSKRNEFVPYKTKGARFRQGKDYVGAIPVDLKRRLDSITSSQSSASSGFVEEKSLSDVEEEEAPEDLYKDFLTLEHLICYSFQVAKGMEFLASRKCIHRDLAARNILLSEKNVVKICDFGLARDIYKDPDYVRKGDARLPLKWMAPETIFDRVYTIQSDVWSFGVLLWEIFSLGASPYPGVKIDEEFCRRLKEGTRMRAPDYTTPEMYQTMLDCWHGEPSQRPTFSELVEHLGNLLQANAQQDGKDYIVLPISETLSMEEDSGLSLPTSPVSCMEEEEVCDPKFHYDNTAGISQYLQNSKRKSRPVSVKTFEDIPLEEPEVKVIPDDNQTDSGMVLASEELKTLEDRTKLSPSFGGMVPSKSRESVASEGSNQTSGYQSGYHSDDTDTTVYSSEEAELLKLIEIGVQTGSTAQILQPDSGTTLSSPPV

[9] = tested on: Human gastric cancer cell line NU-GC-4; experiment: Tumor growth inhibitory activity against human gastric cancer cell line NU-GC-4 in nude mice; type: in vivo; settings: 25 mg/kg oral once a day, 10th day
Experimental: Human gastric cancer cell line NU-GC-4 (available from Cell Resource Center for Biomedical Research, Institute of Development Aging and Cancer, Tohoku University) is transplanted into nude mice. When the tumor volume becomes about 100 mm^3, the mice are grouped so that the groups each consist of four mice and have an even average tumor volume. The test compound suspended in 0.5% methylcellulose is orally administered once a day for 9 days.
Only 0.5% methylcellulose is administered to the control group in the same manner as in the test groups. The tumor growth inhibition rate (TGIR) is calculated as follows: The tumor growth inhibition rate (TGIR)=(1−TX/CX)×100 wherein CX represents the volume of tumor at day X for the control group and TX represents the volume of tumor for test compound administration groups, when the tumor volume at the day of the start of the administration is presumed to be 1.

KDR [10] = biological target: T2, KDR; experiment: KDR autophosphorylation inhibition in HUVEC, VEGF stimulated; type: cell-based; design: endogenous in cells; host or cells: HUVEC; settings: 50 ng/ml VEGF
Source text: as §2
Target sequence in this assay (P35968 20-1356): as above
HUVEC was inoculated into an EGM medium (KURABO INDUSTRIES LTD.) so that the number of cells was 2×10^6/100-mm Petri dish (Collagen coated Dish, 4020-010, IWAKI), and, 24 hr after the inoculation, the EGM medium was replace with an EBM medium containing 0.5% fetal calf serum (KURABO INDUSTRIES LTD.). Compound A was added, and the mixture was incubated for 90 min. After stimulation with 50 ng/ml of VEGF (100-20, PeproTech, Inc.) for 5 min, the culture was removed. The residue was subjected to immunoprecipitation with a KDR antibody (Flk-1, C-1158, Santa Cruz) by the above c-Met autophosphorylation inhibitory activity measuring method, followed by SDS-PAGE to measure KDR autophosphorylation inhibitory activity.

COc1cc(Oc2ccnc3cc(OC)c(OC)cc23)ccc1NC(=S)NC(=O)Cc1ccc(F)cc1 [Compound A, N-[4-{(6,7-dimethoxy-4-quinolyl)oxy}-2-methoxyphenyl]-N′-[2-(4-fluorophenyl)acetyl]thiourea]
thickening of the bone growth plate [1]: did not induce the thickening of the bone growth plate | bone growth plate area ([1]; versus control group): no significant difference | IC50 (c-Met [2]): 15.5 nM | IC50 (c-Met [3]; c-Met (MKN45), without stimulation): 11.3 nM | c-Met/KDR selectivity (c-Met [3]; c-Met versus KDR autophosphorylation in culture cells): high | c-Met autophosphorylation inhibitory activity (c-Met [4]): high | metabolic rate [5]: proper metabolic rate | IC50 (KDR [6]): ≥ 1000 nM | IC50 (c-Met [7]): 9.3 nM | KDR autophosphorylation inhibitory activity (KDR [8]): low | TGIR (tumor growth inhibition rate) [9]: 78% | IC50 (KDR [10]): ≥ 1000 nM
